Data: patent US20240209028A1, “CNP COMPOUNDS” (priority 2022, published 2024)
Starred links: 1 amine or outer side, 2 acyl side, 3 side chain; linkers in the order of their positions; H or OH if unused. Positions of bridges follow the written chain, without caps; N, C: chain ends. Residues, ends and D or L forms follow the SMILES beside them. *: point of attachment. C18 diacid = O=C(O)CCCCCCCCCCCCCCCCC(=O)*; γGlu = O=C(O)[C@H](CCC(=O)[*:2])N[*:1]; AEEA = NCCOCCOCC(=O)O

Experiments:
[1] = CNP local tolerance study in LYD pigs (s.c. injection, histopathology); type: in vivo, domestic LYD pig; settings: for assessment for human subcutaneous administration: based on pig local tolerance
From the text: The purpose of this study was to evaluate the local tissue reaction response to subcutaneous injection of CNP compounds in pigs.
Procedure: In domestic pigs, the injection site was subjected to histopathologic examination after subcutaneous dosing. Injections were placed mid-back between the shoulder and hip on both sides of the dorsal midline, and one or two days before injection sites of 2×2 cm were shaved and marked by permanent ink under light anaesthesia. Each injection consisted of 100 or 200 μl formulation with a concentration of approx. 4400 μM. CNP compound formulations were prepared according to the principles in General Methods of Preparation—Method G, and were either A) 8 mM sodium phosphate, 250 mM glycerol, pH 6.5, B) 5 mM sodium acetate, 250 mM glycerol, pH 4.0 or C) 5 mM sodium acetate, 240 mM propylene glycol, pH 4.0 and physiological saline was included as negative control.
On Day 1 the pigs were lightly anaesthetised. An insulin pen (NovoPen 4) and insulin needle (NovoTwist 32G/5 mm) were used for accurate deposition of the CNP formulations in the subcutaneous fat tissue with the needle perpendicular to the skin. On Day 5 (4 days post injection) or 6 (5 days post injection), the pigs were euthanised, and the injection sites were removed and fixed in 4% phosphate buffered neutral formaldehyde in sealed plastic containers. The tissue blocks were prefixed for 2-4 hours in 10% buffered formalin, cut into 2 mm thick slabs with a multi knife, examined for macroscopic changes and finally fixed overnight in cassettes. Two slabs of tissue were selected for light microscopic evaluation where the tissue reaction was maximal or alternatively in the central part of the injection site. Three to four 2-4 μm sections were cut from three levels at 100 μm distance, stained with haematoxylin and eosin (H&E) and evaluated in a light microscope. Histopathological changes were graded on a 5-level scale ((Minimal (Min), Mild (Mil), Moderate (Mod), Marked (Mar) and Severe (Sev)). The studies are summarised in Table 18.
Results: The results are summarised in Table 19. * Necrosis was used as a marker for local subcutaneous reactions; **NAD: No Abnormalities Detected

mouse metatarsal bones = experiment: Mouse metatarsal bone dissection and culture (ex vivo bone growth); type: cell-based, mouse (NMRI); settings: 100 nM, n=8
Protocol: The purpose of this study was to evaluate bone growth after administration of CNP compounds in an ex vivo mouse model.
Procedure: One-day old mouse pups (NMRI, Javier Labs France) were euthanised prior to dissection. All applicable international and internal Novo Nordisk guidelines for care and use of animals were followed. The three middle metatarsal bones were dissected out from each hind paw. The dissected bones were placed in 24-well cell culture plates and cultured in 400 μl a-Minimum Essential Media supplemented with 0.2% BSA, 1% Pen/Strep at 37° C. and 5% CO2. The bones from all animals were randomised into a control group and six CNP compound-treated groups (100 nM; n=8). The medium was changed every 2-3 days. All compounds were formulated according to the principles described in General Methods of Preparation—Method G. Compounds 9435 and 9483 were formulated in A) 5 mM sodium acetate, 250 mM glycerol, pH 4.0 while compounds 9384, 9407, 9480 and 9482 were formulated in B) 8 mM sodium phosphate, 250 mM glycerol, pH 7.4.
Digital pictures were captured on day 0, 4, 7, 11, and 14 using a digital camera attached to a Nikon microscope. The length of each metatarsal bone was measured using ImageJ software and increase in bone length was expressed as percentage change from the length measured at the day of dissection (Mean (SD)).
In Table 27, metatarsal bones were isolated from mice and cultured for up to 14 days. Length was measured every 3-4 days throughout the study and expressed as percentage change from day 0 (Mean (SD)). Statistically significant differences are indicated compared to control group (two-way ANOVA).

[2] = 5 days after subcutaneous injections in the pig

Structure (SMILES) | local subcutaneous necrosis ([1]; pig, in vivo, sc) | Increase in bone length, mean (%) change from day 0 (mouse metatarsal bones; day 4 in culture) [%] | Increase in bone length, mean (%) change from day 0 (mouse metatarsal bones; day 7 in culture) [%] | Increase in bone length, mean (%) change from day 0 (mouse metatarsal bones; day 11 in culture) [%] | Increase in bone length, mean (%) change from day 0 (mouse metatarsal bones; day 14 in culture) [%] | local subcutaneous necrosis [1, 2] | assessment for human subcutaneous administration [1]
CC[C@H](C)[C@@H]1NC(=O)[C@H](CCCNC(=N)N)NC(=O)[C@H](CC(=O)O)NC(=O)[C@H](CC(C)C)NC(=O)[C@H](CCCCN)NC(=O)[C@H](CC(C)C)NC(=O)CNC(=O)[C@H](Cc2ccccc2)NC(=O)[C@@H](NC(=O)CNC(=O)[C@H](CCCCN)NC(=O)[C@H](CO)NC(=O)[C@H](CC(C)C)NC(=O)CNC(=O)[C@H](CCCCN)NC(=O)[C@H](CCCCN)NC(=O)[C@H](CCC(N)=O)NC(=O)[C@H](C)NC(=O)CNC(=O)[C@H](Cc2c[nH]cn2)NC(=O)[C@H](CCC(=O)O)NC(=O)COCCOCCNC(=O)COCCOCCNC(=O)CC[C@H](NC(=O)CCCCCCCCCCCCCCCCC(=O)O)C(=O)O)CSSC[C@@H](C(=O)O)NC(=O)CNC(=O)[C@H](CC(C)C)NC(=O)CNC(=O)[C@H](CO)NC(=O)[C@H](CC(C)C)NC(=O)[C@H](CO)NC(=O)CNC1=O [compound 1235] | minimal to mild |  |  |  |  |  | 
CC[C@H](C)[C@@H]1NC(=O)[C@H](CCCNC(=N)N)NC(=O)[C@H](CC(=O)O)NC(=O)[C@H](CC(C)C)NC(=O)[C@@H]2CCCN2C(=O)[C@H](CC(C)C)NC(=O)CNC(=O)[C@H](Cc2ccccc2)NC(=O)[C@@H](NC(=O)CNC(=O)[C@H](CCC(N)=O)NC(=O)[C@H](CO)NC(=O)CNC(=O)CNC(=O)[C@H](CCCCN)NC(=O)[C@H](CCCCN)NC(=O)[C@H](CCC(N)=O)NC(=O)[C@H](C)NC(=O)CNC(=O)[C@H](CCCCN)NC(=O)[C@H](Cc2ccc(O)cc2)NC(=O)COCCOCCNC(=O)COCCOCCNC(=O)COCCOCCNC(=O)COCCOCCNC(=O)CC[C@H](NC(=O)CC[C@H](NC(=O)CCCCCCCCCCCCCCCCC(=O)O)C(=O)O)C(=O)O)CSSC[C@@H](C(=O)O)NC(=O)CNC(=O)[C@H](CC(C)C)NC(=O)CNC(=O)[C@H](CO)NC(=O)[C@H](CC(C)C)NC(=O)[C@H](CO)NC(=O)CNC1=O [compound 9435] ({C18 diacid-γGlu-γGlu-AEEA-AEEA-AEEA-AEEA}-YKGAQKKGGSQGCFGLPLDRIGSLSGLGC-OH; disulfide 13-29; C-terminus assumed) |  | 36.2 | 47.3 | 53.9 | 59.2 | minimal to mild | acceptable
CC[C@H](C)[C@@H]1NC(=O)[C@H](CCCNC(=N)N)NC(=O)[C@H](CC(=O)O)NC(=O)[C@H](CC(C)C)NC(=O)[C@@H]2CCCN2C(=O)[C@H](CC(C)C)NC(=O)CNC(=O)[C@H](Cc2ccccc2)NC(=O)[C@@H](NC(=O)CNC(=O)[C@H](CCC(N)=O)NC(=O)[C@H](CO)NC(=O)[C@H](CC(C)C)NC(=O)CNC(=O)[C@H](CCCCN)NC(=O)[C@H](CCCCN)NC(=O)[C@H](CCC(N)=O)NC(=O)[C@H](C)NC(=O)CNC(=O)[C@H](CCCCN)NC(=O)[C@H](Cc2ccc(O)cc2)NC(=O)COCCOCCNC(=O)COCCOCCNC(=O)COCCOCCNC(=O)COCCOCCNC(=O)CC[C@H](NC(=O)CC[C@H](NC(=O)CC[C@H](NC(=O)CCCCCCCCCCCCCCCCC(=O)O)C(=O)O)C(=O)O)C(=O)O)CSSC[C@@H](C(=O)O)NC(=O)CNC(=O)[C@H](CC(C)C)NC(=O)CNC(=O)[C@H](CO)NC(=O)[C@H](CC(C)C)NC(=O)[C@H](CO)NC(=O)CNC1=O [compound 9480] ({C18 diacid-γGlu-γGlu-γGlu-AEEA-AEEA-AEEA-AEEA}-YKGAQKKGLSQGCFGLPLDRIGSLSGLGC-OH; disulfide 13-29) |  | 33.1 | 43.9 | 49.2 | 52.1 | no | acceptable
CC[C@H](C)[C@@H]1NC(=O)[C@H](CCCNC(=N)N)NC(=O)[C@H](CC(=O)O)NC(=O)[C@H](CC(C)C)NC(=O)[C@@H]2CCCN2C(=O)[C@H](CC(C)C)NC(=O)CNC(=O)[C@H](Cc2ccccc2)NC(=O)[C@@H](NC(=O)CNC(=O)[C@H](CO)NC(=O)[C@H](CO)NC(=O)[C@H](CC(C)C)NC(=O)CNC(=O)[C@H](CCCCN)NC(=O)[C@H](CCCCN)NC(=O)[C@H](CCC(N)=O)NC(=O)[C@H](C)NC(=O)CNC(=O)[C@H](CCCCN)NC(=O)[C@H](Cc2ccc(O)cc2)NC(=O)[C@H](CCCCN)NC(=O)[C@H](CCCNC(=N)N)NC(=O)[C@H](C)NC(=O)[C@H](CCC(N)=O)NC(=O)[C@@H]2CCCN2C(=O)[C@H](Cc2c[nH]cn2)NC(=O)[C@H](CCC(=O)O)NC(=O)[C@H](CCC(N)=O)NC(=O)CC[C@H](NC(=O)CC[C@H](NC(=O)CC[C@H](NC(=O)CC[C@H](NC(=O)CC[C@H](NC(=O)CCCCCCCCCCCCCCCCC(=O)O)C(=O)O)C(=O)O)C(=O)O)C(=O)O)C(=O)O)CSSC[C@@H](C(=O)O)NC(=O)CNC(=O)[C@H](CC(C)C)NC(=O)CNC(=O)[C@H](CO)NC(=O)[C@H](CC(C)C)NC(=O)[C@H](CO)NC(=O)CNC1=O [compound 9482] ({C18 diacid-γGlu-γGlu-γGlu-γGlu-γGlu}-QEHPQARKYKGAQKKGLSSGCFGLPLDRIGSLSGLGC-OH; disulfide 21-37) |  | 37.7 | 47.1 | 54.4 | 57.5 | no | acceptable
CC[C@H](C)[C@@H]1NC(=O)[C@H](CCCNC(=N)N)NC(=O)[C@H](CCC(=O)O)NC(=O)[C@H](CC(C)C)NC(=O)[C@@H]2CCCN2C(=O)[C@H](CC(C)C)NC(=O)CNC(=O)[C@H](Cc2ccccc2)NC(=O)[C@@H](NC(=O)CNC(=O)[C@H](CO)NC(=O)[C@H](CO)NC(=O)[C@H](CC(C)C)NC(=O)CNC(=O)[C@H](CCCCN)NC(=O)[C@H](CCCCN)NC(=O)[C@H](CCC(N)=O)NC(=O)[C@H](C)NC(=O)CNC(=O)[C@H](CCCCN)NC(=O)[C@H](Cc2ccc(O)cc2)NC(=O)[C@H](CCCCN)NC(=O)[C@H](CCCNC(=N)N)NC(=O)[C@H](C)NC(=O)[C@H](CCC(N)=O)NC(=O)[C@@H]2CCCN2C(=O)[C@H](Cc2c[nH]cn2)NC(=O)[C@H](CCC(=O)O)NC(=O)[C@H](CCC(N)=O)NC(=O)CC[C@H](NC(=O)CC[C@H](NC(=O)CC[C@H](NC(=O)CC[C@H](NC(=O)CCCCCCCCCCCCCCCCC(=O)O)C(=O)O)C(=O)O)C(=O)O)C(=O)O)CSSC[C@@H](C(=O)O)NC(=O)CNC(=O)[C@H](CC(C)C)NC(=O)CNC(=O)[C@H](CO)NC(=O)[C@H](CC(C)C)NC(=O)[C@H](CO)NC(=O)CNC1=O [compound 9483] ({C18 diacid-γGlu-γGlu-γGlu-γGlu}-QEHPQARKYKGAQKKGLSSGCFGLPLERIGSLSGLGC-OH; disulfide 21-37) | no to moderate | 30.2 | 39.5 | 49.7 | 51.5 |  | 
